Experimental data published in article PMC4865847, “Putative histidine kinase inhibitors with antibacterial effect against multi-drug resistant clinical isolates identified by in vitro and in silico screens” (Scientific Reports, 2016).
Converted amounts (≈) assume the structure as drawn. Where two headings read alike, the source gives them in different places.

Legend:
[1] = target: T1, E. coli PhoR (PhoR^E) (Escherichia coli, UniProt P08400); test: In vitro autophosphorylation kinase assay with γ-32P-ATP, PhoR^E; assay type: biochemical; settings: for IC50: autophosphorylation, one time point (30 sec), 10% DMSO
T1 construct: The catalytic portion (DHp and CA domain) of E. coli PhoR (PhoR^E); made in house; host or cells: E. coli RIL
T1 sequence (P08400 210-425): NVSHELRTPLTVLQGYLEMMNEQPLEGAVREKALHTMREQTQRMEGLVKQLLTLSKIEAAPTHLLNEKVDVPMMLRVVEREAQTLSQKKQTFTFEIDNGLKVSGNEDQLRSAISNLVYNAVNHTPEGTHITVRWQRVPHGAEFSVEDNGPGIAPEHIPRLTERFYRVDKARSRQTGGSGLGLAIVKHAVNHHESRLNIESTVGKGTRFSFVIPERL
Procedure: (§1) To evaluate the inhibitory capacity of selected hits from DSF, SBVS and LBSS in vitro autophosphorylation kinase assays with γ-^32P-ATP were performed as previously described. Ligands were dissolved in 100% DMSO. […] Controls lacking ligands contained an equal concentration of DMSO. Inhibition of autophosphorylation was determined by incubating 0.12 mg/ml (≈4 μM) HK and up to 20 mM fragment in kinase buffer (50 mM Tris HCl, pH 8.5, 50 mM KCl, 5 mM MgCl2, 0.5 mM EDTA and 0.1 mM DTT). Autophosporylation reactions were initiated by addition of 0.1 μCi/μl γ-^32P-ATP containing from 0.03 to 0.06 μM ATP (final concentrations). Autophosphorylation was quenched with 2xSDS-PAGE sample buffer supplemented with 50 mM EDTA. […] After electrophoresis, the bottoms of the gels were removed to lower the background from the unincorporated radiolabeled ATP. Gels were dried without staining on a Bio-Rad Gel Air drying system and the phosphorylated protein was quantified by phosphor-imaging. Prism GraphPad was used for curve fitting and statistical analysis.

[2] = target: T2, S. pneumoniae WalK (Streptococcus pneumoniae, UniProt Q8DPL8); test: In vitro autophosphorylation kinase assay with γ-32P-ATP, WalK; assay type: biochemical; settings: autophosphorylation, one time point (30 sec), 10% DMSO
T2 construct: WalK (amino acids from 208 to 449); N-terminal His6-3C site of vector pOPINF (own knowledge of the vector); made in house; host or cells: E. coli RIL
T2 sequence (Q8DPL8 208-449): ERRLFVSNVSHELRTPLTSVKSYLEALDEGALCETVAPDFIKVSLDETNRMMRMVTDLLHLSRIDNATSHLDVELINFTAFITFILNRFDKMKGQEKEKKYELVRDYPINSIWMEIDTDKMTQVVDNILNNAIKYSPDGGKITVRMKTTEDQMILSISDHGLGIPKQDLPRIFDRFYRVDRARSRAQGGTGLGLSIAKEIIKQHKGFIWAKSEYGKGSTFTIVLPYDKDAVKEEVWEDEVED
Procedure: as §1

[3] = tested on: Staphylococcus aureus; test: Antibacterial susceptibility testing (MIC/MBC), S. aureus; assay type: cell-based; settings: Staphylococcus aureus
Procedure: (§2) Minimal inhibitory concentrations (MICs) were determined following a standard double-dilution method. […] For S. pneumoniae MICs were determined by adapting the standard double-dilution method to anaerobic conditions and of this microorganism (use of Todd Hewitt Yeast extract with 200 U/mL of catalase and continuous monitoring of growth).

[4] = tested on: Staphylococcus epidermidis; test: Antibacterial susceptibility testing (MIC/MBC), S. epidermidis; assay type: cell-based; settings: Staphylococcus epidermidis
Procedure: as §2

[5] = tested on: Escherichia coli; test: Antibacterial susceptibility testing (MIC/MBC), E. coli; assay type: cell-based; settings: Escherichia coli, read-out: MIC E. coli CFT 073
Procedure: as §2

[6] = Solubility in kinase buffer; assay type: physicochemical; settings: kinase buffer in the presence of 10% DMSO
[7] = target: S. aureus PhoR (PhoR^S) (Staphylococcus aureus, UniProt Q2FXN7); test: In vitro autophosphorylation kinase assay with γ-32P-ATP, PhoR^S; assay type: biochemical; settings: IC50 PhoR^S, autophosphorylation, one time point (30 sec), 10% DMSO
Chain of S. aureus PhoR (PhoR^S) (Q2FXN7 entry or part of it): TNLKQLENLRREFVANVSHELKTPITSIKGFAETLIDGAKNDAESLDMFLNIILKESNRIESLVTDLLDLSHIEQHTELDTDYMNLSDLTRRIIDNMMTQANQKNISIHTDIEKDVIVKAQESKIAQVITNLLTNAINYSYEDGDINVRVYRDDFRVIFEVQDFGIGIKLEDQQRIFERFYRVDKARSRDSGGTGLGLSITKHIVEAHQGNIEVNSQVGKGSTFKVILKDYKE
Procedure: (§3) To evaluate the inhibitory capacity of selected hits from DSF, SBVS and LBSS in vitro autophosphorylation kinase assays with γ-^32P-ATP were performed as previously described. Ligands were dissolved in 100% DMSO. […] Controls lacking ligands contained an equal concentration of DMSO. Inhibition of autophosphorylation was determined by incubating 0.12 mg/ml (≈4 μM) HK and up to 20 mM fragment in kinase buffer (50 mM Tris HCl, pH 8.5, 50 mM KCl, 5 mM MgCl2, 0.5 mM EDTA and 0.1 mM DTT). Autophosporylation reactions were initiated by addition of 0.1 μCi/μl γ-^32P-ATP containing from 0.03 to 0.06 μM ATP (final concentrations). Autophosphorylation was quenched with 2xSDS-PAGE sample buffer supplemented with 50 mM EDTA. Samples were applied without heating to 15% (w/v) Tris-glycine SDS-polyacrylamide gels. After electrophoresis, the bottoms of the gels were removed to lower the background from the unincorporated radiolabeled ATP. Gels were dried without staining on a Bio-Rad Gel Air drying system and the phosphorylated protein was quantified by phosphor-imaging. Prism GraphPad was used for curve fitting and statistical analysis.

[8] = target: T3, T. maritima HK853 (Thermotoga maritima, UniProt Q9WZV7); test: In vitro autophosphorylation kinase assay with γ-32P-ATP, HK853; assay type: biochemical
T3 sequence (Q9WZV7 232-489): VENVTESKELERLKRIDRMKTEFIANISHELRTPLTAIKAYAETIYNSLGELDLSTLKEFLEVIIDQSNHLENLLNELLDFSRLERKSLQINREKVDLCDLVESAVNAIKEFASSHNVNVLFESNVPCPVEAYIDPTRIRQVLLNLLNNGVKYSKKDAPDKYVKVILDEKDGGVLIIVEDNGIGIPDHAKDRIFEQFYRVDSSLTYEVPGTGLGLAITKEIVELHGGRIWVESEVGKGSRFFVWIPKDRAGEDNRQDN
Procedure: as §3

[9] = DSM20231, strain DSM 20231, read-out: MIC S. aureus DSM 20231
[10] = DSM20044, strain DSM 20044, read-out: MIC S. epidermidis DSM 20044

| SMILES | inhibition at 2000 µM ([1]; 2 mM, 30 sec, compared to negative control) | IC50 ([1]; read-out: IC50 PhoR^E) | IC50 ([2]; read-out: IC50 WalK) | MBC ([3]; DSM20231, read-out: MBC S. aureus DSM 20231) | MIC ([3]; DSM20231, read-out: MIC S. aureus DSM 20231) | MIC ([4]; DSM20044, read-out: MIC S. epidermidis DSM 20044) | MIC [5] | solubility in kinase buffer [6] | IC50 [7] | IC50 ([1]; IC50 PhoR^E) | IC50 [8] | IC50 ([2]; IC50 WalK) | MIC [3, 9] | MIC [4, 10] | MIC ([5]; strain CFT 073) |
| --- | --- | --- | --- | --- | --- | --- | --- | --- | --- | --- | --- | --- | --- | --- | --- |
| Nc1ccc2c(c1)[nH]c1ccccc12 [F2.1] | > 50% | 0.24 mM | > 2 mM | > 500 µg/mL | 8 µg/mL (≈ 43.9 µM) | > 500 µg/mL | > 500 µg/mL | good solubility | – | – | – | – | – | – | – |
| CC(OC(=O)c1cccc(S(=O)(=O)N2CCc3ccccc3C2)c1)C(=O)NC(N)=O (stereo not drawn) [S2] | – | – | – | – | – | – | – | – | > 5 mM | > 5 mM | > 5 mM | > 5 mM | > 500 µg/mL | > 500 µg/mL | > 500 µg/mL |
| CC(NC(=O)C1CC(=O)N(c2ccccc2)C1)c1cccc(NC(=O)c2ccccc2)c1 (stereo not drawn) [S3] | – | – | – | – | – | – | – | – | > 5 mM | > 5 mM | > 5 mM | > 5 mM | > 500 µg/mL | > 500 µg/mL | > 500 µg/mL |
| CNC(=O)NC(=O)CSc1nc2sc3c(c2c(=O)n1-c1ccccc1F)CCCC3 [S4] | – | – | – | – | – | – | – | – | > 5 mM | > 5 mM | > 5 mM | > 5 mM | > 500 µg/mL | > 500 µg/mL | > 500 µg/mL |
| CC(NCc1cccc(F)c1)c1ccc2ccccc2c1 (stereo not drawn) [S10] | – | – | – | – | – | – | – | – | > 5 mM | > 5 mM | > 5 mM | > 5 mM | > 500 µg/mL | > 500 µg/mL | > 500 µg/mL |
